The values below come from patent publication US20260053767A1, “Hepatoprotective Compositions And Methods” (Jemyll, Ltd., priority 2022, published 2026).

For assay [1], the system named is PGC-1α. The assay is described as follows: PGC-1α protein levels in liver cells (marker for mitochondrial biogenesis). It is filed as cell-based. Particulars: AML-12 liver cells. An excerpt: To that end, the inventors used endothelial cells (EOMA cells) and liver cells (AML-12 cells) in vitro and quantified various markers in response to exposure of the cells to environmental challenge in the presence and absence of DDA at low concentrations. Unless indicated otherwise, the DDA concentration in the in vitro experiments was 5 mcg per microliter. More specifically, the inventors measured p-H2AX protein levels as a marker for DNA damage, PGC-1α protein levels as a marker for mitochondrial biogenesis, NAMPT enzyme levels as a marker for potential for NAD+ production, and total antioxidant capacity as a marker of cellular health. In addition, the inventors also measured global SIRT activity as a gauge of activity for all SIRT enzymes, and in particular SIRT1 enzyme levels as markers for autophagy and various beneficial processes associated with a caloric restricted diet, and SIRT3 levels as markers for mitochondrial function and longevity.
The inventors also evaluated activity of DDA on energy metabolism, and particularly on mitochondrial health and/or mitochondrial biogenesis. The protein followed was PGC-1α, a known marker for mitochondrial biogenesis, and exemplary results are depicted in FIG. 7. […] Such finding is not entirely unexpected as PGC-1α is a transcriptional co-activator and as such tightly regulated.

The subject of assay [2] is rat primary HSCs. In words: HSCs activation by flow cytometry (α-SMA and collagen type I protein expression). It is filed as cell-based. Particulars: 3 days CM from palmitate-treated hepatocytes, then 1% (w/vol) for 24 hours, without compound 25.15%. Here is the method:
A 10% (w/v) FFA-free BSA (Sigma) solution was prepared in ddH2O and maintained at 55° C. in a water bath. 10 mM FFA/1% BSA solution was obtained by complexing the appropriate amount of palmitate stock solution to 10% BSA at 55° C. for another 30 min. The above solution was then cooled to 25° C., filter sterilized and stored at −20° C. until use. Primary hepatocytes were grown in DMEM supplemented with palmitate (0.4 mM). After 24 h. CM was clarified by centrifugation at 6000 g to remove cell debris, sterile filtered with a 0.45 μm pore size membrane filter and stored in aliquots at −20° C. until use.
Hepatic Stellate cells: Primary hepatic stellate cells were isolated from Wistar rats as described previously (7). In brief, the rats were surgically opened under anesthesia, and the livers were perfused through the IVC with 0.5 mM EGTA, after which the portal vein was cut and the upper IVC was clamped. […] HSCs activation was assessed by flow cytometry by evaluating alpha-smooth muscle Actin (α-SMA) and Collagen type I alpha 1 (COLIA1) protein expression. α-SMA and COLIA1 antibodies were obtained from Thermo Fisher scientific (Waltham, MA). Flow cytometric analysis was conducted with CytoFlex (Beckman Coulter, Brea, CA) and data analyzed with Kaluza software (Beckman Coulter, Brea, CA). […]

Take `O=C(O)CCCCCCCCCCC(=O)O` [DDDA, dodecanedioic acid]: the PGC-1α levels result in assay [1] (6 hours, p=0.001) is on record as “increased PGC1α levels”; in assay [1] (24 hours, pattern relative to 6 hours), “paradoxically reversed”. For the same compound, the “expression of COLA1A and α-SMA (flow cytometry)” value in assay [2] turned out to be 9.18%.
